# Reference: patent US20240368139A1, “NOVEL MODULATORS OF EHMT1 AND EHMT2 AND THERAPEUTIC USE THEREOF” (Tango Therapeutics, Inc., priority 2021, published 2024)
# Assays:
# H3K9me2 in HCT116 cells = experiment: HCT116 H3K9me2 in-cell western assay; type: cell-based; details: Homo sapiens, HCT-116, 72 h, HCT116 cells, 72 hours incubation; read-out: H3K9me2 ICW IC50
# Text: HCT116 cell line was purchased from ATCC (Manassas, VA, USA). […] Penicillin-Streptomycin and heat inactivated fetal bovine serum were purchased from Hyclone (Logan, UT, USA). DPBS, Corning^R were purchased from VWR (Radnor, PA, USA). Triton′ X-100 was purchased from Sigma (St. Louis, MO, USA). Intercept blocking buffer, DRAQ5, Licor Odyssey Infrared Scanner were purchased from Licor Biosciences (Lincoln, NB, USA). Plate washer was purchased from BioTek (Winooski, VT, USA). […] 16% Paraformaldehyde was purchased from Electron Microscopy Sciences (Hatfield, PA, USA). HCT116 cells were maintained in complete growth medium (RPMI supplemented with 10% heat inactivated fetal bovine serum, 1% Penicillin-Streptomycin) and cultured at 37° C. under 5% CO2. N^2-(4-methoxy-3-(3-(pyrrolidin-1-yl)propoxy)phenyl)-N^4,6-dimethyl]pyrimidine-2,4-diamine (synthesis disclosed in International Application WO2017181177A1) was used as a control compound.
# HCT116 cells (ATCC) were trypsinized, counted and seeded in assay medium (RPMI supplemented with 10% heat inactivated fetal bovine serum, 1% Penicillin-Streptomycin) at a concentration of 2,000 cells per well to a 384-well cell culture plate with compounds in 50 μl per well. Plates were incubated with at 37° C. under 5% CO2 for 72 hours. After the incubation, 50 μl per well of 8% paraformaldehyde in PBS was added to the plates and incubated at room temperature for 20 minutes. Plates were transferred to a BioTek (EL406) plate washer and washed 5 times with 110 μl per well of wash buffer (1×PBS containing 0.1% Triton X-100). The plates were next blocked with 50 μl of Intercept blocking buffer for 1 hour at room temperature. Blocking buffer was removed and 30 μl per well of monoclonal primary antibody of H3K9me2 (CST) diluted 1:200 in Intercept blocking buffer were added and plates were incubated overnight at 4° C. The plates were then washed 5 times with 110 μl per well of wash buffer (1×PBS containing 0.1% Triton X-100). Next 30 μl per well of secondary was added (1:400 800 CW goat anti-rabbit IgG in blocking buffer) with 1:1000 DRAQ5 in blocking buffer and incubated for 2 hours at room temperature. The plates were washed 5 times with 110 μl per well of wash buffer (1×PBS containing 0.1% Triton X-100) then with 100 μl per well of water once. Plates were allowed to dry at room temperature then imaged on a Licor Odyssey Infrared Scanner which measured integrated intensity at 700 nm and 800 nm wavelength. Both 700 and 800 channels were scanned.
# The average of the ratio values (800 nm/700 nm) for each well was calculated and used to determine the percentage for each test well in the plate. Compounds were serially diluted two-fold in 0.1% DMSO for a total of 10 test concentrations beginning at 10 μM. IC50 curves were generated using duplicate wells per concentration of compound. […] IC50 values were calculated using a non-linear regression of Prism.
# human EHMT1 982-1266 = target: T1, human EHMT1 982-1266 (Homo sapiens, UniProt Q9H9B1); experiment: EHMT1 enzyme assay on histone peptide substrate (3H-SAM SPA); details: EHMT1 IC50, recombinant human EHMT1 982-1266, histone peptide substrate
# T1 sequence (Q9H9B1 982-1266): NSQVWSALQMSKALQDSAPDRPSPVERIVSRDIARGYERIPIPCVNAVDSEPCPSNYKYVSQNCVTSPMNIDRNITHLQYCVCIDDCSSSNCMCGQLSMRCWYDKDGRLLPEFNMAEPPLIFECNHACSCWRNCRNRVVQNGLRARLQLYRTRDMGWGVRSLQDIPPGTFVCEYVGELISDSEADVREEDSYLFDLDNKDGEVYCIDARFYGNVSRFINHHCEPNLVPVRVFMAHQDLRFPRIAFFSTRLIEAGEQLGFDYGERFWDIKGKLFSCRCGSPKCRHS
# human EHMT2 913-1193 = target: T2, human EHMT2 913-1193 (Homo sapiens, UniProt Q96KQ7); experiment: EHMT2 enzyme assay on histone peptide substrate (3H-SAM SPA); details: EHMT2 IC50, recombinant human EHMT2 913-1193, histone peptide substrate
# T2 sequence (Q96KQ7 913-1193): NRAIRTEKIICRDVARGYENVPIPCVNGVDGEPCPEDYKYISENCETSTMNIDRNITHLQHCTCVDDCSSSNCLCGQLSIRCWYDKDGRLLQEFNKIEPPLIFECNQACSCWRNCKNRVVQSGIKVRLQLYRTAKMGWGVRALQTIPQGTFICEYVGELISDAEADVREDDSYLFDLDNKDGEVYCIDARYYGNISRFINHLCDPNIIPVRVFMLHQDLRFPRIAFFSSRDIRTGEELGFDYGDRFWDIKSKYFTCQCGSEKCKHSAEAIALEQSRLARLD
Structure (SMILES),IC50 (H3K9me2 in HCT116 cells) [nM],IC50 (human EHMT1 982-1266) [nM],IC50 (human EHMT2 913-1193) [nM]
"CNc1cc(C)nc(Nc2cc3c(c(C4=CCN(C)CCC4)c2)OCCO3)c1 [Compound 146, N4,6-dimethyl-N2-[5-(1-methyl-2,3,4,7-tetrahydroazepin-5-yl)-2,3-dihydro-1,4-benzodioxin-7-yl]pyridine-2,4-diamine]",100 to 500,100 to 500,500 to 2000
"CNc1cc(C)nc(Nc2cc(OCCCN3CCCC3)c3c(c2)OCO3)c1 [Compound 147, N4,6-dimethyl-N2-[7-(3-pyrrolidin-1-ylpropoxy)-1,3-benzodioxol-5-yl]pyridine-2,4-diamine]",500 to 2000,500 to 2000,> 2000
"CNc1cc(C)nc(Nc2cc3c(c(C4=CCC(N)CC4)c2)OCC3)n1 (stereo not drawn) [Compound 148, N2-[7-(4-aminocyclohexen-1-yl)-2,3-dihydrobenzofuran-5-yl]-N4,6-dimethyl-pyrimidine-2,4-diamine]",500 to 2000,500 to 2000,> 2000
"CNc1cc(C)nc(Nc2cc3c(c(C4CCNCC4)c2)OCC3)n1 [Compound 149, N4,6-dimethyl-N2-[7-(4-piperidyl)-2,3-dihydrobenzofuran-5-yl]pyrimidine-2,4-diamine]",> 2000,> 2000,> 2000
CNc1cc(C)nc(Nc2cc3c(c(N4CCNCC4)c2)OCC3)n1 [Compound 152],> 2000,> 2000,> 2000
"CNc1cc(C)nc(Nc2cc3c(c([C@H]4CC[C@H](N)CC4)c2)OCC3)n1 [Compound 153, N2-[7-(4-aminocyclohexyl)-2,3-dihydrobenzofuran-5-yl]-N4,6-dimethyl-pyrimidine-2,4-diamine]",> 2000,> 2000,> 2000
"CNc1cc(C)nc(Nc2cc(OCCCN3CCCC3)c3c(c2)OC(F)(F)O3)n1 [Compound 154, N2-[2,2-difluoro-7-(3-pyrrolidin-1-ylpropoxy)-1,3-benzodioxol-5-yl]-N4,6-dimethyl-pyrimidine-2,4-diamine]",100 to 500,< 100,500 to 2000
"CNc1cc(C)nc(Nc2cc3c(c(C4=CCNCC4)c2)OCC3)n1 [Compound 155, N4,6-dimethyl-N2-[7-(1,2,3,6-tetrahydropyridin-4-yl)-2,3-dihydrobenzofuran-5-yl]pyrimidine-2,4-diamine]",100 to 500,100 to 500,500 to 2000
"CNc1cc(C)nc(Nc2cc3c(c(C4=CCN(C)CCC4)c2)OC(F)(F)O3)n1 [Compound 156, N2-[2,2-difluoro-7-(1-methyl-2,3,4,7-tetrahydroazepin-5-yl)-1,3-benzodioxol-5-yl]-N4,6-dimethyl-pyrimidine-2,4-diamine]",100 to 500,< 100,100 to 500
"CNc1cc(C)nc(Nc2cc3c(c(C4=CCN(CCOC)CCC4)c2)OC(F)(F)O3)n1 [Compound 158, N2-[2,2-difluoro-7-[1-(2-methoxyethyl)-2,3,4,7-tetrahydroazepin-5-yl]-1,3-benzodioxol-5-yl]-N4,6-dimethyl-pyrimidine-2,4-diamine]",> 2000,> 2000,> 2000
"CNc1cc(C)nc(Nc2cc3c(c(C4=CCN(C)CCC4)c2Cl)OCCO3)n1 [Compound 165, N2-[6-chloro-5-(1-methyl-2,3,4,7-tetrahydroazepin-5-yl)-2,3-dihydro-1,4-benzodioxin-7-yl]-N4,6-dimethyl-pyrimidine-2,4-diamine]",< 100,< 100,< 100
CNc1cc(C)nc(Nc2cc3c(c(C4=CCN(C)CCC4)c2F)OCC32CC2)n1 [Compound 171],< 100,< 100,100 to 500
CNc1cc(C)nc(Nc2cc3c(c(C4=CCN(C)CCC4)c2F)OCCC3(F)F)n1 [Compound 173],< 100,< 100,100 to 500
CNc1cc(C)nc(Nc2cc3c(c(C4=CCNCCC4)c2F)OCCC3(F)F)n1 [Compound 174],< 100,< 100,< 100
CNc1cc(C)nc(Nc2cc3c(c(C4=CCNCCC4)c2F)OCC3(C)C)n1 [Compound 178],< 100,< 100,100 to 500
CNc1cc(C)nc(Nc2cc3c(c(C4=CCN(C)CCC4)c2F)OCC3C)n1 (stereo not drawn) [Compound 181],100 to 500,< 100,100 to 500
CNc1cc(C)nc(Nc2cc3c(c(C4=C[C@@H](C)NCCC4)c2F)OCC3)n1 [Compound 182],< 100,< 100,100 to 500
CNc1cc(C)nc(Nc2cc3c(c(C4=C[C@H](C)NCCC4)c2F)OCC3)n1 [Compound 185],< 100,< 100,100 to 500
CNc1cc(C)nc(Nc2c(F)c3c(c(C4=CCN(C)CCC4)c2F)OCC3)n1 [Compound 186],100 to 500,100 to 500,500 to 2000
CNc1cc(C)nc(Nc2cc3c(c(C4=CCNCCC4)c2OC)OCC3)n1 [Compound 192],100 to 500,100 to 500,500 to 2000
CNc1nc(Nc2cc3c(c(C4=CCNCCC4)c2F)OCC3)nc(C)c1OC [Compound 194],< 100,< 100,100 to 500
CNc1cc(C)nc(Nc2cc3c(c(C4=CCN(C(C)C)CCC4)c2F)OCC3)n1 [Compound 195],< 100,< 100,100 to 500
CNc1nc(Nc2cc3c(c(C4=CCN(C)CCC4)c2F)OCC3)nc(C)c1OC [Compound 196],100 to 500,100 to 500,500 to 2000
CNc1nc(Nc2cc3c(c(C4=CCNCCC4)c2F)OCCO3)nc(C)c1F [Compound 197],100 to 500,100 to 500,500 to 2000
CNc1cc(C)nc(Nc2cc3c(c(C4=CCNCCC4)c2O)OCC3)n1 [Compound 198],100 to 500,< 100,100 to 500
